Measurements reported in ChEMBL document CHEMBL1201862, “PubChem BioAssay data set” (2004).
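1) Cells in 96-well plates. 2) Compound, 48 h, 5 concentrations. 3) Linear interpolation between surrounding doses. 4) Unreached endpoint = highest concentration. GI50 = concentration required for 50% inhibition of growth.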 Active and inactive are the calls of the source. Cut-off read from the data, not from the text of the source: active = GI50 up to about 1.1 µM and inactive = higher.

Tests used:
Assay in all cases: DTP human tumour cell line panel, 48 h
[1] = system: SR
[2] = system: HCT-15
[3] = system: UO-31
[4] = system: OVCAR-4
[5] = system: MDA-MB-435
[6] = system: SW-620
[7] = system: A549
[8] = system: HCT-116
[9] = system: HOP-62
[10] = system: CAKI-1
[11] = system: U-251
[12] = system: SF-295
[13] = system: K562
[14] = system: SK-OV-3
[15] = system: SK-MEL-28
[16] = system: MDA-N
[17] = system: NCI-H522
[18] = system: HOP-92
[19] = system: OVCAR-5
[20] = system: T47D
[21] = system: RXF 393
[22] = system: NCI-H226
[23] = system: MDA-MB-231
[24] = system: DU-145
[25] = system: NCI-H460
[26] = system: NCI-H23
[27] = system: SF-539
[28] = system: SK-MEL-5
[29] = system: 786-0
[30] = system: BT-549
[31] = system: TK-10
[32] = system: ACHN
[33] = system: PC-3
[34] = system: SNB-19
[35] = system: COLO 205
[36] = system: SN12C
[37] = system: OVCAR-3
[38] = system: MCF7
[39] = system: IGROV-1
[40] = system: Malme-3M
[41] = system: NCI/ADR-RES
[42] = system: A498
[43] = system: SNB-75
[44] = system: SF-268
[45] = system: SK-MEL-2
[46] = system: KM12
[47] = system: CCRF-CEM
[48] = system: MOLT-4
[49] = system: OVCAR-8
[50] = system: HT-29
[51] = system: UACC-257
[52] = system: M14
[53] = system: Hs-578T
[54] = system: HCC 2998
[55] = system: EKVX
[56] = system: LOX IMVI
[57] = system: HL-60
[58] = system: RPMI-8226
[59] = system: UACC-62

C[C@H]1C2Cc3cc(N)ccc3[C@@]1(C)CCN2CCc1ccccc1
GI50 [1]: 19.3 µM (inactive) | GI50 [2]: 25.2 µM | GI50 [3]: 52 µM (inactive) | GI50 [4]: 48.2 µM (inactive) | GI50 [5]: 41.9 µM (inactive) | GI50 [6]: 64.7 µM (inactive) | GI50 [7]: 42.7 µM (inactive) | GI50 [8]: 41.8 µM (inactive) | GI50 [9]: 39.5 µM (inactive) | GI50 [10]: 64.4 µM (inactive) | GI50 [11]: 43.8 µM (inactive) | GI50 [12]: 27.4 µM (inactive) | GI50 [13]: 28.8 µM (inactive) | GI50 [14]: 24 µM (inactive) | GI50 [15]: > 100 µM (inactive) | GI50 [16]: 66.2 µM (inactive) | GI50 [17]: 13.2 µM (inactive) | GI50 [18]: 21.4 µM (inactive) | GI50 [19]: 74.6 µM (inactive) | GI50 [20]: 31.6 µM (inactive) | GI50 [21]: 33.3 µM (inactive) | GI50 [22]: 58.7 µM (inactive) | GI50 [23]: > 100 µM (inactive) | GI50 [24]: > 100 µM (inactive) | GI50 [25]: 33.1 µM (inactive) | GI50 [26]: 32.8 µM (inactive) | GI50 [27]: 45.2 µM (inactive) | GI50 [28]: 18.3 µM (inactive) | GI50 [29]: 49.9 µM (inactive) | GI50 [30]: > 100 µM (inactive) | GI50 [31]: 78 µM (inactive) | GI50 [32]: 41.2 µM (inactive) | GI50 [33]: 22.6 µM (inactive) | GI50 [34]: > 100 µM (inactive) | GI50 [35]: 16.8 µM (inactive) | GI50 [36]: > 100 µM (inactive) | GI50 [37]: 15.9 µM (inactive) | GI50 [38]: 25.2 µM (inactive) | GI50 [39]: 41.9 µM (inactive) | GI50 [40]: 17.7 µM (inactive) | GI50 [41]: 42.3 µM (inactive) | GI50 [42]: 29.4 µM (inactive) | GI50 [43]: 85.1 µM (inactive) | GI50 [44]: 76 µM (inactive) | GI50 [45]: 50.7 µM (inactive) | GI50 [46]: 37.5 µM (inactive) | GI50 [47]: 33.2 µM (inactive) | GI50 [48]: 20.4 µM (inactive) | GI50 [49]: 62.5 µM (inactive) | GI50 [50]: 6.49 µM (inactive) | GI50 [51]: 30.7 µM (inactive) | GI50 [52]: 20.9 µM (inactive) | GI50 [53]: 96.6 µM (inactive) | GI50 [54]: 9.08 µM (inactive) | GI50 [55]: 40.6 µM (inactive) | GI50 [56]: 20.2 µM (inactive) | GI50 [57]: 28.9 µM (inactive) | GI50 [58]: 33.6 µM (inactive) | GI50 [59]: 45.5 µM (inactive)

CCOC(=O)C1=CN(Cc2ccccc2)C2ON=C(c3ccc(Cl)cc3)C2C1 (stereo unspecified)
GI50 [1]: > 23.9 µM (inactive) | GI50 [2]: > 32.4 µM | GI50 [3]: 26.9 µM (inactive) | GI50 [4]: 42 µM (inactive) | GI50 [5]: 29 µM (inactive) | GI50 [6]: > 52.5 µM (inactive) | GI50 [7]: 17.6 µM (inactive) | GI50 [8]: 19.9 µM (inactive) | GI50 [9]: > 55.5 µM (inactive) | GI50 [10]: > 52.6 µM (inactive) | GI50 [11]: 13.5 µM (inactive) | GI50 [12]: 45.6 µM (inactive) | GI50 [13]: 5 µM (inactive) | GI50 [14]: > 63.7 µM (inactive) | GI50 [15]: > 56.2 µM (inactive) | GI50 [16]: 17.9 µM (inactive) | GI50 [17]: 10.4 µM (inactive) | GI50 [18]: 18.8 µM (inactive) | GI50 [19]: 34.4 µM (inactive) | GI50 [20]: 5.61 µM (inactive) | GI50 [21]: 38.6 µM (inactive) | GI50 [22]: > 56.2 µM (inactive) | GI50 [23]: 10.6 µM (inactive) | GI50 [24]: > 55 µM (inactive) | GI50 [25]: 40.5 µM (inactive) | GI50 [26]: 35 µM (inactive) | GI50 [27]: > 55 µM (inactive) | GI50 [28]: 16.5 µM (inactive) | GI50 [29]: 54.7 µM (inactive) | GI50 [30]: 32.4 µM (inactive) | GI50 [31]: > 60.5 µM (inactive) | GI50 [32]: 31 µM (inactive) | GI50 [33]: > 36.6 µM (inactive) | GI50 [34]: > 100 µM (inactive) | GI50 [35]: > 51.3 µM (inactive) | GI50 [36]: > 52 µM (inactive) | GI50 [37]: 39.3 µM (inactive) | GI50 [38]: 23.6 µM (inactive) | GI50 [39]: 29.5 µM (inactive) | GI50 [40]: > 55 µM (inactive) | GI50 [41]: > 54.6 µM (inactive) | GI50 [42]: > 42.6 µM (inactive) | GI50 [43]: 44.3 µM (inactive) | GI50 [44]: > 42.1 µM (inactive) | GI50 [45]: 15.2 µM (inactive) | GI50 [46]: 48.2 µM (inactive) | GI50 [47]: 9.1 µM (inactive) | GI50 [48]: 5.4 µM (inactive) | GI50 [49]: > 54 µM (inactive) | GI50 [50]: 48.6 µM (inactive) | GI50 [51]: 33.3 µM (inactive) | GI50 [52]: > 54.7 µM (inactive) | GI50 [53]: 11.6 µM (inactive) | GI50 [54]: > 100 µM (inactive) | GI50 [55]: 20.6 µM (inactive) | GI50 [56]: > 57.5 µM (inactive) | GI50 [57]: 23.4 µM (inactive) | GI50 [58]: 22 µM (inactive) | GI50 [59]: 17.1 µM (inactive)

CC(C)=CCC/C(=C\CC/C(=C\CCc1ccoc1)C(=O)O)C(=O)O
GI50 [1]: > 100 µM (inactive) | GI50 [2]: > 100 µM | GI50 [3]: > 100 µM (inactive) | GI50 [4]: > 100 µM (inactive) | GI50 [5]: > 100 µM (inactive) | GI50 [6]: > 100 µM (inactive) | GI50 [7]: > 100 µM (inactive) | GI50 [8]: > 100 µM (inactive) | GI50 [9]: > 100 µM (inactive) | GI50 [10]: > 100 µM (inactive) | GI50 [11]: > 100 µM (inactive) | GI50 [12]: > 100 µM (inactive) | GI50 [13]: > 100 µM (inactive) | GI50 [14]: > 100 µM (inactive) | GI50 [15]: > 100 µM (inactive) | GI50 [16]: > 100 µM (inactive) | GI50 [17]: > 100 µM (inactive) | GI50 [18]: > 100 µM (inactive) | GI50 [19]: > 100 µM (inactive) | GI50 [20]: > 100 µM (inactive) | GI50 [21]: > 100 µM (inactive) | GI50 [22]: > 100 µM (inactive) | GI50 [23]: > 100 µM (inactive) | GI50 [24]: > 100 µM (inactive) | GI50 [26]: > 100 µM (inactive) | GI50 [27]: > 100 µM (inactive) | GI50 [28]: > 100 µM (inactive) | GI50 [29]: > 100 µM (inactive) | GI50 [30]: > 100 µM (inactive) | GI50 [31]: > 100 µM (inactive) | GI50 [32]: > 100 µM (inactive) | GI50 [33]: > 100 µM (inactive) | GI50 [34]: > 100 µM (inactive) | GI50 [35]: > 100 µM (inactive) | GI50 [36]: > 100 µM (inactive) | GI50 [37]: > 100 µM (inactive) | GI50 [38]: > 100 µM (inactive) | GI50 [39]: > 100 µM (inactive) | GI50 [40]: > 100 µM (inactive) | GI50 [41]: > 100 µM (inactive) | GI50 [42]: > 100 µM (inactive) | GI50 [43]: > 100 µM (inactive) | GI50 [44]: 92.3 µM (inactive) | GI50 [45]: > 100 µM (inactive) | GI50 [46]: > 100 µM (inactive) | GI50 [47]: > 100 µM (inactive) | GI50 [48]: > 100 µM (inactive) | GI50 [49]: > 100 µM (inactive) | GI50 [50]: > 100 µM (inactive) | GI50 [51]: > 100 µM (inactive) | GI50 [52]: > 100 µM (inactive) | GI50 [53]: > 100 µM (inactive) | GI50 [54]: > 100 µM (inactive) | GI50 [55]: > 100 µM (inactive) | GI50 [56]: > 100 µM (inactive) | GI50 [57]: 11.7 µM (inactive) | GI50 [58]: > 100 µM (inactive) | GI50 [59]: > 100 µM (inactive)
